In PMC9312114, “Synthesis and Evaluation of Novel DNA Minor Groove Binders as Antiamoebic Agents” (Antibiotics, 2022):
In brackets after ≈: the same amount, converted by molar mass.

Columns and labels:
Acanthamoeba castellanii [1] = test: Amoebicidal assay; type: cell-based, Acanthamoeba castellanii genotype T4 (ATCC 50492); conditions: for viability at 50 µM / MIC50: Acanthamoeba castellanii; for viability at 50 µM: 24 h, negative control 100%, read-out: amoeba viability; for MIC50: read-out: MIC50 (minimum inhibitory concentration required to inhibit 50% of amoeba growth); for A. castellanii, 25 µM: Table 2, 25 µM; for A. castellanii, 25 µM / A. castellanii, 75 µM / A. castellanii, 100 µM: amoeba alone 100; for A. castellanii, 75 µM: Table 2, 75 µM; for A. castellanii, 100 µM: Table 2, 100 µM
Procedure: Acanthamoeba castellanii genotype T4 (ATCC 50492) was cultivated in 10 mL growth medium of peptone yeast glucose (PYG) in tissue flasks (Baig, et al., 2021; Anwar, et al., 2019). The growth medium, PYG, consists of 0.75% proteose peptone, 0.75% yeast extract, and 1.5% glucose. Next, the amoebae were kept in tissue flasks and incubated at 30 °C.
To determine the compounds’ antiamoebic effects, amoebicidal assays were conducted. The 5 × 10^5 amoebae were placed in a 24-well plate and brought to a final volume of 500 µL. […] The 24-well plate was then placed in a 30 °C incubator for 24 h. Positive and negative controls were added to the assay in order to ensure reliable results. Serving as the negative control was the amoebae alone, with RPMI [4]. Meanwhile, amoebae, along with 0.25% sodium dodecyl sulphate (SDS), were used as the positive control. Through the addition of 0.1% methylene blue, live and dead amoebae were distinguished. Additionally, significant compounds were identified by conducting a Student’s t-test with a two-tailed distribution. Furthermore, the MIC50 values of three compounds were determined by using concentrations of […], 75, and 100 µM.

Acanthamoeba castellanii [2] = test: Encystation assay; type: cell-based; conditions: 16% glucose, 48 h, negative control 100% cysts
Procedure: The effects of the compounds on amoeba encystation were determined through the conduction of encystation assays. Briefly, 1 × 10^6 trophozoites were incubated with the compounds in a final concentration of 16% filter-sterilized glucose. Following a 48 h incubation period, 0.1% SDS was added per well for 20 min. The cysts were then counted by using a haemocytometer. To ensure accuracy, Acanthamoeba castellanii was cultured in 16% glucose, serving as the negative control.

[3] = tested on: Acanthamoeba castellanii cysts; test: Excystation assay; type: cell-based; conditions: cysts in PYG, negative control 100%, read-out: viable trophozoites (re-emergence of cysts to trophozoites)
Procedure: Amoeba culture was suspended in 3 mL phosphate-buffered saline (PBS) and placed on non-nutrient bacteriological agar plates to allow for the growing of Acanthamoeba castellanii cysts. After two weeks, PBS was applied to plates containing amoeba cysts, which were then scraped off. The amoebae were centrifuged at 3000× g for 10 min, and the resulting pellet was resuspended in RPMI. The 5 × 10^5 cysts were then incubated in PYG, along with 50 µM of the compounds. To ensure accuracy, amoeba cysts in PYG alone were considered as the negative control, whereas amoeba cysts in RPMI alone were taken as the positive control, as the cysts would not be able to revert back to trophozoites. The amoeba trophozoites were then numbered by using a haemocytometer.

HeLa cells = test: Cytotoxicity assay (LDH release); type: cell-based, human; conditions: for cytotoxicity against human HeLa cells: 50 µM, 24 h, LDH release, Triton X-100 = 100%
Procedure: HeLa cells were acquired from American Type Culture Collection (ATCC) of identification ATCC CCL-2, Singapore. The cells are utilized to conduct cytotoxicity and cytopathogenicity assays. Through their cultivation in complete media, the cells were grown, and then they were placed in a 95% humidifying incubator at 37 °C and 5% CO2. Complete medium comprises Roswell Park Memorial Media (RPMI), 1% penicillin–streptomycin, 1% minimum essential medium amino acids, 1% L-glutamine, and 10% fetal bovine serum (FBS). To determine the toxicity of the compounds against human HeLa cells, cytotoxicity assays were conducted. In short, HeLa cells were cultured in 96-well plates and treated with the compounds. The plate was then placed in a humidifying incubator with 95% humidity and 5% CO2, at 37 °C, for 24 h. After 24 h, the supernatant was collected, and the cytotoxicity of the compounds was determined through a cytotoxicity detection kit that measured the quantity of lactate dehydrogenase (LDH) release. Accurate results were ensured through the addition of positive and negative controls. Untreated HeLa cells served as the negative control, whereas HeLa cells treated with 1% Triton X-100 served as the positive control. Finally, the cytotoxic properties were numerically determined by following the necessary calculations: (absorbance of media from cells treated with the drugs—absorbance of media from cells of negative control)/(absorbance of media from cells of positive control—absorbance of media from cells of negative control) × 100 [19].

[4] = tested on: Acanthamoeba castellanii on HeLa cell monolayers; test: Cytopathogenicity assay (amoeba-mediated host-cell death); type: cell-based; conditions: amoebae pretreated with 50 µM for 2 h, then 24 h on HeLa cells, negative control 100%
Procedure: Amoeba-mediated host-cell death was determined by treating 5 × 10^5 amoebae with 50 µM of compounds. The amoeba-containing plate was then placed in the incubator for 2 h at 30 °C. Following the 2 h incubation period, the treated amoebae were put on confluent HeLa cell monolayers. The plate containing the treated amoebae and HeLa cells was incubated for 24 h. Progressing the incubation period, the supernatant was collected, and the cytotoxicity was determined. Accurate results were ensured through the addition of negative and positive controls. The untreated amoebae, alone, on the cells served as the negative control, while the cells treated with Triton X-100 served as the positive control.

[5] = set-up: method as in PMID 35600289; conditions: cited from earlier work
[6] = set-up: method as in PMID 35600289; conditions: pH of 7; cited from earlier work
[7] = tested on: Acanthamoeba cysts and trophozoites; set-up: method as in PMID 9736540; conditions: 0.5 to 2.5% solution; cited from earlier work

Cc1ccc(CSCCC(=O)Nc2cc(C(=O)Nc3cc(C(=O)NCCCN(C)C)n(C)c3)n(C)c2)cc1 [MGB22, N-(3-(dimethylamino)propyl)-1-methyl-4-(1-methyl-4-(3-((4-methylbenzyl)thio)propanamido)-1H-pyrrole-2-carboxamido)-1H-pyrrole-2-carboxamide]
viability at 50 µM (Acanthamoeba castellanii [1]): 66.5% | cysts present (Acanthamoeba castellanii [2]): 30.3% | viability at 50 µM [3]: 52.9% | cytotoxicity against human HeLa cells (HeLa cells): 33.7% | amoeba-mediated host-cell death (cytotoxic activity due to amoeba) [4]: 71.5%

Cn1cc(NC(=O)c2cc(NC(=O)c3ccc(C#Cc4ccccc4)cc3)cn2C)cc1C(=O)NCCCN1CCOCC1 [MGB28, 1-methyl-4-(1-methyl-4-(4-(phenylethynyl)benzamido)-1H-pyrrole-2-carboxamido)-N-(3-morpholinopropyl)-1H-pyrrole-2-carboxamide]
viability at 50 µM (Acanthamoeba castellanii [1]): 97.2% | cysts present (Acanthamoeba castellanii [2]): 29.6% | viability at 50 µM [3]: 40.6% | cytotoxicity against human HeLa cells (HeLa cells): 13.7% | amoeba-mediated host-cell death (cytotoxic activity due to amoeba) [4]: 91.9%

CN(C)CCCNC(=O)c1cc(NC(=O)c2cc(NC(=O)c3cc(NC(=O)c4cscn4)cn3C)cn2C)cn1C [MGB6, N-(5-((5-((5-((3-(dimethylamino)propyl]carbamoyl)-1-methyl-1H-pyrrol-3-yl)carbamoyl)-1-methyl-1H-pyrrol-3-yl}carbamoyl)-1-methyl-1H-pyrrol-3-yl)-1,3-thiazole-4-carboxamide]
MIC50 (Acanthamoeba castellanii [1]): 58.3 µM (≈ 33.8 µg/mL) | viability at 50 µM (Acanthamoeba castellanii [1]): 59.5% | A. castellanii, 25 µM (Acanthamoeba castellanii [1]): 57 ± 2.4 | A. castellanii, 75 µM (Acanthamoeba castellanii [1]): 48 ± 5.5 | A. castellanii, 100 µM (Acanthamoeba castellanii [1]): 45 ± 1.4 | cysts present (Acanthamoeba castellanii [2]): 46.3% | viability at 50 µM [3]: 41.4% | cytotoxicity against human HeLa cells (HeLa cells): 14.4% | amoeba-mediated host-cell death (cytotoxic activity due to amoeba) [4]: 49.5%

Cn1cc(NC(=O)c2cc(NC(=O)c3ccc(/C=C/c4cnc5ccccc5c4)cc3)cn2C)cc1C(=O)NCCN1CCOCC1 [MGB-BP-3]
pKa [5]: 5.26 | solubility in water [6]: insoluble in water

CN(C)CCCNC(=O)c1cc(NC(=O)c2cc(NC(=O)c3ccc(C#Cc4ccccc4)cc3)cn2C)cn1C [MGB26, N-(3-(dimethylamino)propyl)-1-methyl-4-(1-methyl-4-(4(phenylethynyl)benzamido)-1H-pyrrole-2-carboxamido)-1H-pyrrole-2-carboxamide]
viability at 50 µM (Acanthamoeba castellanii [1]): 82.7% | cysts present (Acanthamoeba castellanii [2]): 52.3% | viability at 50 µM [3]: 79.1% | cytotoxicity against human HeLa cells (HeLa cells): 33.5% | amoeba-mediated host-cell death (cytotoxic activity due to amoeba) [4]: 67.3%

Cn1cc(NC(=O)c2cc(NC(=O)c3ccc(/C=C/c4ccccc4)cc3)cn2C)cc1C(=O)NCCCN1CCOCC1 [MGB32, (E)-1-methyl-4-(1-methyl-4-(4-styrylbenzamido)-1H-pyrrole-2-carboxamido)-N-(3-morpholinopropyl)-1H-pyrrole-2-carboxamide]
viability at 50 µM (Acanthamoeba castellanii [1]): 80.1% | cysts present (Acanthamoeba castellanii [2]): 41.5% | viability at 50 µM [3]: 62.1% | cytotoxicity against human HeLa cells (HeLa cells): 22.4% | amoeba-mediated host-cell death (cytotoxic activity due to amoeba) [4]: 96.3%

Triton X-100 [reference compound]
toxic activity (positive control) (HeLa cells): 100%

Cn1cc(NC(=O)c2cc(NC(=O)c3cc4ccccc4oc3=O)cn2C)cc1C(=O)NCCCN1CCOCC1 [MGB16, 1-methyl-N-(1-methyl-5-{[3-(morpholin-4-yl)propyl]carbamoyl}-1H-pyrrol-3-yl)-4-(2-oxo-2H-chromene-3-amido)-1H-pyrrole-2-carboxamide]
viability at 50 µM (Acanthamoeba castellanii [1]): 43.2% | cysts present (Acanthamoeba castellanii [2]): 45.6% | viability at 50 µM [3]: 51.7% | cytotoxicity against human HeLa cells (HeLa cells): 12.7% | amoeba-mediated host-cell death (cytotoxic activity due to amoeba) [4]: 88.6%

povidone-iodine
antiamoebic activity [7]: good amount of antiamoebic activity

CN(C)CCCNC(=O)c1cc(NC(=O)c2cc(NC(=O)c3ccc(/C=C/c4ccccc4)cc3)cn2C)cn1C [MGB30, (E)-N-(3-(dimethylamino)propyl)-1-methyl-4-(1-methyl-4-(4-styrylbenzamido)-1H-pyrrole-2-carboxamido)-1H-pyrrole-2-carboxamide]
viability at 50 µM (Acanthamoeba castellanii [1]): 63.4% | cysts present (Acanthamoeba castellanii [2]): 27.8% | viability at 50 µM [3]: 78.1% | cytotoxicity against human HeLa cells (HeLa cells): 34% | amoeba-mediated host-cell death (cytotoxic activity due to amoeba) [4]: 87.3%

Cn1cc(NC(=O)c2cc(NC(=O)CCSc3ccc4ccccc4c3)cn2C)cc1C(=O)NCCCN1CCOCC1 [MGB20, 1-methyl-4-(1-methyl-4-(3-(naphthalen-2-ylthio)propanamido)-1H-pyrrole-2-carboxamido)-N-(3-morpholinopropyl)-1H-pyrrole-2-carboxamide]
MIC50 (Acanthamoeba castellanii [1]): 83.6 µM (≈ 50.4 µg/mL) | viability at 50 µM (Acanthamoeba castellanii [1]): 81.9% | A. castellanii, 25 µM (Acanthamoeba castellanii [1]): 64 ± 3.2 | A. castellanii, 75 µM (Acanthamoeba castellanii [1]): 54.6 ± 5.8 | A. castellanii, 100 µM (Acanthamoeba castellanii [1]): 48 ± 1.1 | cysts present (Acanthamoeba castellanii [2]): 39% | viability at 50 µM [3]: 96% | cytotoxicity against human HeLa cells (HeLa cells): 31.4% | amoeba-mediated host-cell death (cytotoxic activity due to amoeba) [4]: 83.2%

CC(C)c1sc(NC(=O)c2cc(NC(=O)c3cc(NC(=O)c4nccn4C)cn3C)cn2C)nc1C(=O)NCCCN(C)C [MGB3, N-(3-(dimethylamino)propyl)-5-isopropyl-2-(1-methyl-4-(1-methyl-4-(1-methyl-1H-imidazole-2-carboxamido)-1H-pyrrole-2-carboxamido)-1H-pyrrole-2-carboxamido)thiazole-4-carboxamide]
MIC50 (Acanthamoeba castellanii [1]): 65.9 µM (≈ 41 µg/mL) | viability at 50 µM (Acanthamoeba castellanii [1]): 76.2% | A. castellanii, 25 µM (Acanthamoeba castellanii [1]): 43.7 ± 3.8 | A. castellanii, 75 µM (Acanthamoeba castellanii [1]): 51 ± 4.7 | A. castellanii, 100 µM (Acanthamoeba castellanii [1]): 46 ± 4.8 | cysts present (Acanthamoeba castellanii [2]): 83.5% | viability at 50 µM [3]: 64.3% | cytotoxicity against human HeLa cells (HeLa cells): 16.2% | amoeba-mediated host-cell death (cytotoxic activity due to amoeba) [4]: 41.5%

CC(C)c1sc(NC(=O)c2cc(NC(=O)c3cc(NC(=O)c4cscn4)cn3C)cn2C)nc1C(=O)NCCCN(C)C [MGB4, N-(3-(dimethylamino)propyl)-5-isopropyl-2-(1-methyl-4-(1-methyl-4-(thiazole-4-carboxamido)-1H-pyrrole-2-carboxamido)-1H-pyrrole-2-carboxamido)thiazole-4-carboxamide]
viability at 50 µM (Acanthamoeba castellanii [1]): 95.2% | cysts present (Acanthamoeba castellanii [2]): 82.3% | viability at 50 µM [3]: 47.3% | cytotoxicity against human HeLa cells (HeLa cells): 18.4% | amoeba-mediated host-cell death (cytotoxic activity due to amoeba) [4]: 49.4%
